Columns and labels:
[1] = anatomic pathology (histopathology of heart and kidney) in mice; assay type: in vivo; conditions: CD-1 mice, 20 mg/kg intravenously daily for 9 days, necropsy day 10, microscopic histopathology
Procedure: Samples of tissues from necropsied mice were formalin-fixed, paraffin-embedded, sectioned, stained with hematoxylin and eosin, and examined microscopically. Histopathologic findings were recorded. These findings were subjectively graded on a scale corresponding to slight, mild, moderate, marked and severe as compared to untreated controls.

[2] = clinical pathology (serum clinical chemistry) in mice; assay type: in vivo; conditions: CD-1 mice, 20 mg/kg intravenously daily for 9 days, sera day 10
Procedure: 20-day-old CD-1 mice were divided into a vehicle control group (5 mice) and a treatment group (5 mice). Samples of glycopeptide antibiotics were administered at 20 mg/kg intravenously daily for 9 days.

Staphylococcus sp. = test: in vitro antibacterial evaluation, MIC by broth dilution; assay type: cell-based; conditions: broth dilution, 18 hours at 35° C.; for MIC Staphylococcus aureus (GC 1131): strain GC 1131
Method in brief: (§1)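 Step 1: dilute antibiotic across 64-0.06 μg/mL in Muller-Hinton II […]. Step 2: inoculate at 5×10^5 CFU/mL.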

Streptococcus sp. = test: as above; assay type: cell-based; conditions: broth dilution, 18 hours at 35° C.
Method in brief: as §1

Enterococcus sp. = test: as above; assay type: cell-based; conditions: broth dilution, 18 hours at 35° C.
Method in brief: as §1

Escherichia coli = test: as above; assay type: cell-based
Method in brief: as §1

CC(c1ccccc1)C1NC(=O)CNC(=O)C(CO)NC(=O)C(C(O)C2CNC(=N)N2C2OC(CO)C(O)C(O)C2O)NC(=O)C(C(O)C2CNC(=N)N2)NC(=O)C(Cc2ccc(OC3OC(CO)C(OC4OC5COC(c6ccc(C(=O)O)cc6)OC5C(O)C4O)C(O)C3O)cc2)NC1=O (stereo not drawn) [Example 141, Cyclo[glycyl-β-methylphenylalanyl-O-[4-O-[4,6-O-(4-carboxybenzylidene)hexopyranosyl]-hexopyranosyl]tyrosyl-3-(2-iminoimidazolidin-4-yl)seryl-3-(3-hexopyranosyl-2-iminoimidazolidin-4-yl)serylseryl]]
+113%: Clinical Chemistry (Day 10) % of Control, Creatinine [2]
>64 µg/mL: MIC Staphylococcus aureus (GC 1131) (Staphylococcus sp.; inoculum 5×10^5 CFU/mL) | MIC Staphylococcus aureus (ATCC 29213) (Staphylococcus sp.; strain ATCC 29213) | MIC Staphylococcus aureus (GC 1131) (Staphylococcus sp.) | MIC Staphylococcus aureus (GC 3051) (Staphylococcus sp.; strain GC 3051) | MIC Staphylococcus aureus (GC 3053) (Staphylococcus sp.; strain GC 3053) | MIC Staphylococcus aureus (GC 4541) (Staphylococcus sp.; strain GC 4541) | MIC Staphylococcus aureus (GC 4542) (Staphylococcus sp.; strain GC 4542) | MIC Staphylococcus aureus-SMITH (GC 4543) (Staphylococcus sp.; strain GC 4543) | MIC Staphylococcus aureus (GC 4544) (Staphylococcus sp.; strain GC 4544) | MIC Staphylococcus aureus (GC 4545) (Staphylococcus sp.; strain GC 4545) | MIC Staphylococcus haemolyticus (GC 4546) (Staphylococcus sp.; strain GC 4546) | MIC Coagulase Negative Staphylococcus (GC 4547) (Staphylococcus sp.; strain GC 4547) | MIC Coagulase Negative Staphylococcus (GC 4548) (Staphylococcus sp.; strain GC 4548) | MIC Coagulase Negative Staphylococcus (GC 4549) (Staphylococcus sp.; strain GC 4549) | MIC Coagulase Negative Staphylococcus (GC 4551) (Staphylococcus sp.; strain GC 4551) | MIC Coagulase Negative Staphylococcus (GC 6257) (Staphylococcus sp.; strain GC 6257) | MIC Staphylococcus aureus-SMITH (GC 4543) (Staphylococcus sp.; strain SMITH GC 4543) | MIC Streptococcus agalactiae (GC 4564) (Streptococcus sp.; Streptococcus agalactiae (GC 4564)) | MIC Streptococcus pneumoniae (ATCC 6301) (Streptococcus sp.; Streptococcus pneumoniae (ATCC 6301)) | MIC Streptococcus pneumoniae (GC 1894) (Streptococcus sp.; Streptococcus pneumoniae (GC 1894)) | MIC Streptococcus pneumoniae (GC 4565) (Streptococcus sp.; Streptococcus pneumoniae (GC 4565)) | MIC Streptococcus pyogenes (GC 4563) (Streptococcus sp.; Streptococcus pyogenes (GC 4563)) | MIC Streptococcus pneumoniae (ATCC 6301) (Streptococcus sp.; strain ATCC 6301) | MIC Streptococcus pneumoniae (GC 1894) (Streptococcus sp.; strain GC 1894) | MIC Streptococcus pyogenes (GC 4563) (Streptococcus sp.; strain GC 4563) | MIC Streptococcus agalactiae (GC 4564) (Streptococcus sp.; strain GC 4564) | MIC Streptococcus pneumoniae (GC 4565) (Streptococcus sp.; strain GC 4565) | MIC Enterococcus avium (GC 4558) (Enterococcus sp.; Enterococcus avium (GC 4558)) | MIC Enterococcus faecalis (ATCC 29212) (Enterococcus sp.; Enterococcus faecalis (ATCC 29212)) | MIC Enterococcus faecalis (GC 2242) (Enterococcus sp.; Enterococcus faecalis (GC 2242)) | MIC Enterococcus faecalis (GC 2691) (Enterococcus sp.; Enterococcus faecalis (GC 2691)) | MIC Enterococcus faecalis (GC 3059) (Enterococcus sp.; Enterococcus faecalis (GC 3059)) | MIC Enterococcus faecalis (GC 4552) (Enterococcus sp.; Enterococcus faecalis (GC 4552)) | MIC Enterococcus faecalis (GC 4553) (Enterococcus sp.; Enterococcus faecalis (GC 4553)) | MIC Enterococcus faecalis (GC 4554) (Enterococcus sp.; Enterococcus faecalis (GC 4554)) | MIC Enterococcus faecalis (GC 6189) (Enterococcus sp.; Enterococcus faecalis (GC 6189)) | MIC Enterococcus faecium (GC 2243) (Enterococcus sp.; Enterococcus faecium (GC 2243)) | MIC Enterococcus faecium (GC 4556) (Enterococcus sp.; Enterococcus faecium (GC 4556)) | MIC Enterococcus faecalis (ATCC 29212) (Enterococcus sp.; strain ATCC 29212) | MIC Enterococcus faecalis (GC 2242) (Enterococcus sp.; strain GC 2242) | MIC Enterococcus faecium (GC 2243) (Enterococcus sp.; strain GC 2243) | MIC Enterococcus faecalis (GC 2691) (Enterococcus sp.; strain GC 2691) | MIC Enterococcus faecalis (GC 3059) (Enterococcus sp.; strain GC 3059) | MIC Enterococcus faecalis (GC 4552) (Enterococcus sp.; strain GC 4552) | MIC Enterococcus faecalis (GC 4553) (Enterococcus sp.; strain GC 4553) | MIC Enterococcus faecalis (GC 4554) (Enterococcus sp.; strain GC 4554) | MIC Enterococcus faecium (GC 4556) (Enterococcus sp.; strain GC 4556) | MIC Enterococcus avium (GC 4558) (Enterococcus sp.; strain GC 4558) | MIC Enterococcus faecalis (GC 6189) (Enterococcus sp.; strain GC 6189) | MIC Escherichia coli (ATCC 25922) (Escherichia coli; strain ATCC 25922, 18 hours at 35° C.) | MIC Escherichia coli (GC 4559) (Escherichia coli; strain GC 4559, 18 hours at 35° C.) | MIC Escherichia coli (GC 4560) (Escherichia coli; strain GC 4560, 18 hours at 35° C.)
+308%: Clinical Chemistry (Day 10) % of Control, BUN [2]
64 µg/mL: MIC Enterococcus faecium (GC 4557) (Enterococcus sp.; Enterococcus faecium (GC 4557)) | MIC Enterococcus faecium (GC 4557) (Enterococcus sp.; strain GC 4557)
+++: Anatomical Pathology (Day 10), Kidney [1]
0: Anatomical Pathology (Day 10), Heart [1]

Source: patent US6914045B2, “Glycopeptide antibiotics” (Wyeth Holdings Corporation, priority 2001, dated 2005)
